Publication PMC10850954, “HDAC6/aggresome processing pathway importance for inflammasome formation is context-dependent” (The Journal of Biological Chemistry, 2024)
“Also recorded” adds a separate entry of the source.

What was measured:
[1] = tested on: NLRP3 inflammasome; test: IL-1β release in PBMCs after NLRP3 inflammasome activation; assay type: cell-based, human; conditions: for effect on IL-1β release (in words): all stimulatory conditions (MSU, nigericin, ATP), vs DMSO; for IL-1β reduction as compared to DMSO: compound 24 h, LPS 0.2 ng/ml 4 h
Method: Figure 3 Effect of […] mediated HDAC6 degradation on NLRP3 inflammasome activation in PBMCs.A, schematic of the mode of action of an HDAC6 degrader. The PROTAC engages both HDAC6 and the E3 ligase cereblon (CRBN), which then leads to ubiquitination and degradation of HDAC6. […] PBMCs (without or with LPS priming for 4 h) were treated with the indicated compounds and HDAC6 levels were detected by immunoblotting with an anti-HDAC6 antibody. Detection of actin was used as a control for loading. CGP, CGP084892 (Caspase-1 inhibitor); AFN700 is an inhibitor of the NF-kB pathway (IKK inhibitor). E, HDAC6 degradation impact on IL-1β release in PBMCs following MSU 200 μg/ml (5 h), nigericin 2 μM (2 h) or ATP 3 mM (0.5 h) treatment. Cells were first primed with 0.2 ng/ml LPS for 4 h at 37 °C, then treated with MSU, nigericin, and ATP as indicated.
Human IL-1β and IL-18 were determined with Cisbio HTRF Cisbio Human IL1β (#62HIL1BPET) and Human IL18 (#62HIL18PEG) protocols. All the data were from 3 or 4 independent biological replicates.
For BMDM cells, 1.5 × 10^6 cells per well were seeded in six-well plates. After priming with 1 μg/ml LPS (Invivogen #tlrl-b5lps), cells were challenged with 200 μg/ml MSU crystals (Invivogen #tlrl-msu-25) for 6 h or 20 μM nigericin (Sigma-Aldrich #N7143-5MG) for 30 min. […] The supernatant was removed, and fresh medium was added to have cells at a density of around 5 × 10^5 cells/ml. 100 μl cells were seeded in 96-well plate and incubated for 1∼2 days. During the culturing, dTAG was added when needed to degrade the DARPin. […] For PBMCs, 3 × 10^4 cells per were seeded, and primed with 0.2 ng/ml LPS for 4 h and then incubated with MSU 200 μg/ml (5 h), nigericin 2 μM (2 h) or ATP 3 mM (0.5 h). For pyrin inflammasome, U937-pyrin cells were seeded in 96 well after 0.5 μM PMA treatment for 3 h and then challenged by BAA473 (200 μM) for 4 h at 37 °C.

[2] = tested on: U937-pyrin cells; test: Cell viability (resazurin) of U937-pyrin cells, pyroptosis; assay type: cell-based, human; conditions: BAA473 activation, resazurin assay
Method: Cell viability of PBMCs and U937 cells was checked with PrestoBlue HS Cell Viability Reagent (Invitrogen # P50200) according to the manufacturer’s instructions. After incubation for 1 to 2 h, fluorescence was determined with a PheraStar plate reader under Ex/Em = 540/590 nm.
Supplementary file mmc1.pdf: Supporting Figure S1 BMDM cells were primed by LPS (1 μg/ml) for 4 hrs and then challenged with 20 μM nigericin. 50 μl supernatant was collected every 15 min (up to 90 min) and mIL-1β level was determined by HTRF assay. […] Supporting Figure S2: A, immunoblot of HDAC1, HDAC2 and HDAC6 protein level in WT THP-1 cells vs DMSO or dTAG treated F10-FKBP^F36V THP-1 cells. DARPin F10 was detected by anti-HA antibody. B, FKBP^F36V THP-1 cells were established for evaluating the possible effect of dTAG on IL-1β release. Cells were first treated with PMA (0.5 μM) for 3 hr, then medium was changed and vehicle or dTAG was added (1 μM), followed by 20 μM nigericin for 3 hr. Supporting Figure S3: A, CTG cell viability assay to analyze degrader XY-07-035 toxicity in HEK293T, Jurkat and U937 cells. Cells were treated with different concentrations of the degrader, and cell viability determined by CTG assay was normalized to the non-treated group. […] Supporting Figure S4: Cell viability was measured by resazurin assay, and fluorescence intensity was a representative of the viability.

Compound	effect on IL-1β release (in words) [1]	IL-1β reduction as compared to DMSO ([1]; ATP 3 mM 0.5 h) [%]	IL-1β reduction as compared to DMSO ([1]; MSU 200 μg/ml 5 h)	IL-1β reduction as compared to DMSO ([1]; nigericin 2 μM 2 h) [%]	cell viability / protection from pyroptosis [2]
CN(C(=O)CCCNc1cccc2c1C(=O)N(C1CCC(=O)NC1=O)C2=O)c1ccc(NC(=O)CCCCCCC(=O)NO)cc1 (stereo not shown) [XY-07-35]	clearly reduced	40	ca. 60%	40	did not protect cells from pyroptosis; also recorded: No significant difference
CN1C(=O)CCC(N2C(=O)c3cccc(NCCCC(=O)N(C)c4ccc(NC(=O)CCCCCCC(=O)NO)cc4)c3C2=O)C1=O (stereo not shown) [XY-07-191]	partial inhibition				No significant difference
